In brackets after ≈: the same amount, converted by molar mass.
How the values were obtained:
Staphylococcus aureus = assay: Antibacterial activity against Staphylococcus aureus assessed as inhibition of bacterial growth; format: functional
[1] = Toxicity in renal cells (unknown origin) assessed as cell viability at 64 ug/ml relative to control; format: cell-based; conditions: at 64 µg/mL, read-out: Activity

| MIC (Staphylococcus aureus) | Structure (SMILES) | viability at 64 ug/ml [1] |
| --- | --- | --- |
| 16 µg/mL (≈ 30.5 µM) | O=C(O)c1c(Oc2ccc(I)cc2)c2cc(Cl)ccc2n1-c1ccc(Cl)cc1 | 20% |
| > 64 µg/mL | Clc1ccc(Cn2c(-c3nnn[nH]3)c(Oc3ccc(I)cc3)c3cc(Cl)ccc32)cc1 | 25% |
| 4 µg/mL (≈ 6.99 µM) | O=C(O)c1c(Oc2ccc(I)cc2)c2cc(Cl)ccc2n1Cc1ccc(Cl)c(Cl)c1 | 15% |
| 32 µg/mL (≈ 52.5 µM) | O=C(O)CCNC(=O)c1c(Oc2ccc(I)cc2)c2cc(Cl)ccc2n1Cc1ccc(Cl)cc1 | 15% |
| 4 µg/mL (≈ 8.28 µM) | O=C(O)CCNC(=O)c1c(Oc2ccccc2)c2cc(Cl)ccc2n1Cc1ccc(Cl)cc1 | 20% |
| 8 µg/mL (≈ 15.5 µM) | Cc1ccc(Cn2c(C(=O)O)c(Oc3ccc(I)cc3)c3cc(Cl)ccc32)cc1 | 15% |

Continued, compound first:

| Structure (SMILES) | MIC (Staphylococcus aureus) | viability at 64 ug/ml [1] |
| --- | --- | --- |
| O=C(O)c1c(Oc2cccc(I)c2)c2cc(Cl)ccc2n1Cc1ccc(Br)cc1 | 8 µg/mL (≈ 13.7 µM) | 15% |
| CC(C)(C)c1ccc(Cn2c(C(=O)O)c(Oc3ccc(I)cc3)c3cc(Cl)ccc32)cc1 | 1 µg/mL (≈ 1.79 µM) | 10% |
| O=C(O)c1c(Oc2cccc(I)c2)c2cc(Cl)ccc2n1Cc1ccc(Cl)cc1 | 1 µg/mL (≈ 1.86 µM) | 10% |
| CN[C@H](CC(C)C)C(=O)N[C@H]1C(=O)N[C@@H](CC(N)=O)C(=O)N[C@H]2C(=O)N[C@H]3C(=O)N[C@H](C(=O)N[C@H](C(=O)O)c4cc(O)cc(O)c4-c4cc3ccc4O)[C@H](O)c3ccc(c(Cl)c3)Oc3cc2cc(c3O[C@@H]2O[C@H](CO)[C@@H](O)[C@H](O)[C@H]2O[C@H]2C[C@](C)(N)[C@H](O)[C@H](C)O2)Oc2ccc(cc2Cl)[C@H]1O [VANCOMYCIN] | – | 65% |
| Clc1ccc(Cn2c(-c3nnn[nH]3)c(Oc3ccccc3)c3cc(Cl)ccc32)cc1 | 8 µg/mL (≈ 18.3 µM) | 20% |
| O=C(O)c1c(Oc2ccc(I)cc2)c2cc(Cl)ccc2n1Cc1ccc(Br)cc1 | 2 µg/mL (≈ 3.43 µM) | 15% |
| O=C(O)c1c(Oc2ccc(I)cc2)c2cc(Cl)ccc2n1Cc1ccc(Cl)cc1 | 1 µg/mL (≈ 1.86 µM) | 15% |
